Source: PMC11997881, “Comprehensive Characterization of Bruton’s Tyrosine Kinase Inhibitor Specificity, Potency, and Biological Effects: Insights into Covalent and Noncovalent Mechanistic Signatures” (ACS Pharmacology & Translational Science, 2025)

What was measured:
BLK = BLK (Homo sapiens, UniProt P51451); assay: scanMAX binding POC, BLK; conditions: 1 μM
TXK = target: T1, TXK (Homo sapiens, UniProt P42681); assay: scanMAX binding POC, TXK; conditions: 1 μM
T1 sequence (P42681 1-527): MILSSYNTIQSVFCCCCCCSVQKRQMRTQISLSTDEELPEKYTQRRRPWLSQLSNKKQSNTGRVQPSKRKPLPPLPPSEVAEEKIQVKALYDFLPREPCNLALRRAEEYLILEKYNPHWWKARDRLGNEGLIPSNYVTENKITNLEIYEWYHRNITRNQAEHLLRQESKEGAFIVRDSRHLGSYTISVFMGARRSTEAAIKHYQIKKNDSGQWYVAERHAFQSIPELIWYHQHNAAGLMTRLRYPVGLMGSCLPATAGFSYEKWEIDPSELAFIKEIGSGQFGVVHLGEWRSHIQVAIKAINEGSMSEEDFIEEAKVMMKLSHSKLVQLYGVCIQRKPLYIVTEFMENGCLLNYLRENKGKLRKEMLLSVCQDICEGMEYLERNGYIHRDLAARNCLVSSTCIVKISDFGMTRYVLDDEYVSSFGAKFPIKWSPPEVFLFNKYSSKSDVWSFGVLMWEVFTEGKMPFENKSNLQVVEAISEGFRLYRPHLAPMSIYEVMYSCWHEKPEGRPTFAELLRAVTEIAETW
Text: (§1) Comprehensive Characterization of Bruton’s Tyrosine Kinase Inhibitor Specificity, Potency, and
(§2) Biological Effects: Insights into Covalent and Non-Covalent Mechanistic Signatures
(§3) Antonia C. Darragh1, Andrew M. Hanna1, Justin H. Lipner2, Alastair J. King2, Nicole B. Servant1, Mirza Jahic1*
(§4) *To whom correspondence should be addressed: Mirza Jahic, e-mail address: Mirza.Jahic@discovery.eurofinsus.com
(§5) Supporting Table S1. Comparison of BTK inhibitor specificity to TEC family members. TEC family members are
(§6) Burton’s tyrosine kinase (BTK), tyrosine kinase expressed in hepatocellular carcinoma (TEC), bone marrow-
(§7) expressed kinase (BMX/ETK), and T cell-expressed kinase (TXK/RLK), and interleukin-2-inducible T cell kinase
(§8) A zero POC signifies that the compound

ITK = target: T2, ITK (Homo sapiens, UniProt Q08881); assay: scanMAX binding POC, ITK; conditions: 1 μM
T2 sequence (Q08881 1-620): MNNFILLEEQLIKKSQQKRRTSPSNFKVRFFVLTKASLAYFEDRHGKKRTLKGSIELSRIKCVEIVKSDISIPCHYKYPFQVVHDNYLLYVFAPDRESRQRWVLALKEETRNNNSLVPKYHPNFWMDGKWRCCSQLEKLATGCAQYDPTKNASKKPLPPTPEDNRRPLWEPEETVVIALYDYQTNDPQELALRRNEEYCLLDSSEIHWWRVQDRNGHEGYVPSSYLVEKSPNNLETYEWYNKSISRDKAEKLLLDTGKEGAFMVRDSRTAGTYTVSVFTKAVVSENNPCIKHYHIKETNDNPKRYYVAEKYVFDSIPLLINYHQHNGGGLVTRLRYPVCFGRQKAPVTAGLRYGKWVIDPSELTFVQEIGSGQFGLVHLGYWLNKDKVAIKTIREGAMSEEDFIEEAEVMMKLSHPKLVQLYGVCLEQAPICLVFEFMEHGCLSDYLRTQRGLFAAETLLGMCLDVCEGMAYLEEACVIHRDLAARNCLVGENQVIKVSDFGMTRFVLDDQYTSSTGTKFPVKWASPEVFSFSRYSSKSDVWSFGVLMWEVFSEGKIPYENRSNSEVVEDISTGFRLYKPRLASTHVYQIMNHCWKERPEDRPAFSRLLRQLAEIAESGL
Text: as §1, §2, §3, §4, §5, §6, §7, §8

MKK7 = target: T3, MKK7 (Homo sapiens, UniProt O14733); assay: scanMAX binding POC, MKK7; conditions: 1 μM
T3 sequence (O14733 1-419): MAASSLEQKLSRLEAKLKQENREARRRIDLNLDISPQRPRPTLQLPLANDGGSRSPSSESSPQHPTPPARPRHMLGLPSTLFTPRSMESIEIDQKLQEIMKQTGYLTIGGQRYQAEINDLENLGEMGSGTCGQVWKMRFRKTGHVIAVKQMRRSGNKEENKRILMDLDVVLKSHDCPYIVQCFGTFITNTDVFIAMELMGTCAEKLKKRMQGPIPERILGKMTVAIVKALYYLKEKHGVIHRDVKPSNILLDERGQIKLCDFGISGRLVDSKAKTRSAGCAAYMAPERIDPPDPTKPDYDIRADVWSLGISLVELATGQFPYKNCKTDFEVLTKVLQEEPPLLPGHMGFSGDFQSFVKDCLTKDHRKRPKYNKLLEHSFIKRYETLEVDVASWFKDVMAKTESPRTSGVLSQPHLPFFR

[1] = target: T4, JAK3 (JH1 catalytic domain) (Homo sapiens, UniProt P52333); assay: scanMAX binding POC, JAK3; conditions: 1 μM
T4 construct: The JAK3 POC is for its JH1 catalytic domain

JNK1 (MAPK8) = JNK1 (MAPK8) (Homo sapiens, UniProt P45983); assay: scanMAX binding POC, JNK1; conditions: 1 μM
Experimental: (§9) The compounds were diluted directly into the assays such that the final concentration of DMSO was 0.9%. No enzyme purification steps were performed on the protein extracts before adding them to the reaction mixture, and the protein extracts were diluted 10,000-fold in the final reaction mixture (the final DNA-tagged enzyme concentration was less than 0.1 nM). Binding assay mixtures were incubated at 25 °C with shaking for 1 h. […] The concentration of wild-type or mutant BTK in the eluates was then determined using quantitative PCR. […] Each assay’s affinity ligand concentration on the magnetic beads has been optimized to ensure that the true thermodynamic Kd values for competitor molecules were measured, as described in detail previously99.
(§10) Comparison of BTK inhibitor specificity to c-Jun N-terminal kinases (JNK1-3/MAPKP8-10).
(§11) a The percent of control (POC) is the percent of kinase that was competed off its control ligand relative to the positive and negative controls at the screening concentration56. A zero POC signifies that the compound

JNK3 (MAPK10) = JNK3 (MAPK10) (Homo sapiens, UniProt P53779); assay: scanMAX binding POC, JNK3; conditions: 1 μM
Experimental: as §9, §10, §11

ERBB4 = ERBB4 (Homo sapiens, UniProt Q15303); assay: scanMAX binding POC, ERBB4; conditions: 1 μM
TEC = target: T5, TEC (Homo sapiens, UniProt P42680); assay: scanMAX binding POC, TEC; conditions: 1 μM
T5 sequence (P42680 1-631): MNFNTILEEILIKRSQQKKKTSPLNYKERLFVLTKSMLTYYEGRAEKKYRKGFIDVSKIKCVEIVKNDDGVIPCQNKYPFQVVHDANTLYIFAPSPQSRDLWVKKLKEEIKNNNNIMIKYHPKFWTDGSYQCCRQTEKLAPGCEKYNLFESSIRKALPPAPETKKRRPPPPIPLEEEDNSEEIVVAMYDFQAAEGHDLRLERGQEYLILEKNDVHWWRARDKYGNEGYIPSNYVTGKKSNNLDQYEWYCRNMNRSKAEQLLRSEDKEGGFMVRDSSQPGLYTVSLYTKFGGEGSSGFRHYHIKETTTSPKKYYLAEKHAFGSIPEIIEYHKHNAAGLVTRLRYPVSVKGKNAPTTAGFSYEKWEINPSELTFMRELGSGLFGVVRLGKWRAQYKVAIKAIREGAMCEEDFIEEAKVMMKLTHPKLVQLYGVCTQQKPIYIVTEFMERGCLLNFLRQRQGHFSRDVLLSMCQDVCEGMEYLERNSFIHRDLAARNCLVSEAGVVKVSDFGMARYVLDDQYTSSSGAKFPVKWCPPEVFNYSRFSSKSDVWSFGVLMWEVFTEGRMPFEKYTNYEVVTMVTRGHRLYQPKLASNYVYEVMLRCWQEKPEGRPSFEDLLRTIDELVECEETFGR
Text: as §1, §2, §3, §4, §5, §6, §7, §8

BTK = conditions: cited from earlier work

Sequence of JNK1 (MAPK8) (P45983 whole entry): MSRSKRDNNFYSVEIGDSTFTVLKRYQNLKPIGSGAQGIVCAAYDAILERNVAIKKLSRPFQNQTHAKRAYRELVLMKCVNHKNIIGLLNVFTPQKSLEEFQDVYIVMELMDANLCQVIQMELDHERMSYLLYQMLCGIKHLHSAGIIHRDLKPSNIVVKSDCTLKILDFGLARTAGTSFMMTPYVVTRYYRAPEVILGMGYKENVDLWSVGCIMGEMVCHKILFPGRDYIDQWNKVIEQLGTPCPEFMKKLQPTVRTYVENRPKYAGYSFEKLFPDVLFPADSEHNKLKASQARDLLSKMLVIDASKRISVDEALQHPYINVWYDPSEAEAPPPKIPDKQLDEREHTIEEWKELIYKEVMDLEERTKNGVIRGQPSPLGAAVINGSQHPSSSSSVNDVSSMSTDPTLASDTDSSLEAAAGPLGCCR
Sequence of BLK (P51451 whole entry): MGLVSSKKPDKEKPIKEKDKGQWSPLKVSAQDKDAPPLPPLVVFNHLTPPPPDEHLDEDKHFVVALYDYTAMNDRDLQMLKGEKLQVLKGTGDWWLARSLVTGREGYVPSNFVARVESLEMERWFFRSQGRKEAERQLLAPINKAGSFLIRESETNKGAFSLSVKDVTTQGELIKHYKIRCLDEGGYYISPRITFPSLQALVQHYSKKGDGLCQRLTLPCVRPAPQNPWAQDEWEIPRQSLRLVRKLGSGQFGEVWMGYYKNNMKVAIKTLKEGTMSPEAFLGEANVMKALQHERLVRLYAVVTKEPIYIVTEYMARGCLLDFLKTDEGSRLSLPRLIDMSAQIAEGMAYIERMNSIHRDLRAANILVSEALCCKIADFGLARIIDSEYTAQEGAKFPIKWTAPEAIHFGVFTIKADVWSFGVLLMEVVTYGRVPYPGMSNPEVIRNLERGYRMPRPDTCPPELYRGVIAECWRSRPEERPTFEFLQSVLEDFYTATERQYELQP
Sequence of JNK3 (MAPK10) (P53779 whole entry): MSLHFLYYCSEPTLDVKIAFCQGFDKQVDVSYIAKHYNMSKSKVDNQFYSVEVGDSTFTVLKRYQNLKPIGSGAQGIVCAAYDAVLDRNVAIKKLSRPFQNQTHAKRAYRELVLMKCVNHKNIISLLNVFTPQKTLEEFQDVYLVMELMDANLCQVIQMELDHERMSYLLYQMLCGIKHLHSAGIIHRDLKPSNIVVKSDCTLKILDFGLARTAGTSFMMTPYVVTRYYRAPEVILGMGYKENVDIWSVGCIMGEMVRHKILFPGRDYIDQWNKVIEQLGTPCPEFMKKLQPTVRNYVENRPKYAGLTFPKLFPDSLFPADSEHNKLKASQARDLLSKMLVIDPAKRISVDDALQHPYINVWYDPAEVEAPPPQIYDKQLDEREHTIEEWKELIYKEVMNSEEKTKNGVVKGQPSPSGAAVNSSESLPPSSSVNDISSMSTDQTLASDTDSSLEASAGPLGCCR
T4 sequence (P52333 822-1111 limits assumed): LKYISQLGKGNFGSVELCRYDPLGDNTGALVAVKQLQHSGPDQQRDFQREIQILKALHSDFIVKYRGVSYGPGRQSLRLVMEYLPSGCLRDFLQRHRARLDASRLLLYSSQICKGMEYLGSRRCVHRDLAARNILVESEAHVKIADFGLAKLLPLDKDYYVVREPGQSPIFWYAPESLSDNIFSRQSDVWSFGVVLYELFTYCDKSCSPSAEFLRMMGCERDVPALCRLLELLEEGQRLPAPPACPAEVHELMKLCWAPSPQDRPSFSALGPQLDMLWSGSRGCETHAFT
Sequence of ERBB4 (Q15303 26-1308): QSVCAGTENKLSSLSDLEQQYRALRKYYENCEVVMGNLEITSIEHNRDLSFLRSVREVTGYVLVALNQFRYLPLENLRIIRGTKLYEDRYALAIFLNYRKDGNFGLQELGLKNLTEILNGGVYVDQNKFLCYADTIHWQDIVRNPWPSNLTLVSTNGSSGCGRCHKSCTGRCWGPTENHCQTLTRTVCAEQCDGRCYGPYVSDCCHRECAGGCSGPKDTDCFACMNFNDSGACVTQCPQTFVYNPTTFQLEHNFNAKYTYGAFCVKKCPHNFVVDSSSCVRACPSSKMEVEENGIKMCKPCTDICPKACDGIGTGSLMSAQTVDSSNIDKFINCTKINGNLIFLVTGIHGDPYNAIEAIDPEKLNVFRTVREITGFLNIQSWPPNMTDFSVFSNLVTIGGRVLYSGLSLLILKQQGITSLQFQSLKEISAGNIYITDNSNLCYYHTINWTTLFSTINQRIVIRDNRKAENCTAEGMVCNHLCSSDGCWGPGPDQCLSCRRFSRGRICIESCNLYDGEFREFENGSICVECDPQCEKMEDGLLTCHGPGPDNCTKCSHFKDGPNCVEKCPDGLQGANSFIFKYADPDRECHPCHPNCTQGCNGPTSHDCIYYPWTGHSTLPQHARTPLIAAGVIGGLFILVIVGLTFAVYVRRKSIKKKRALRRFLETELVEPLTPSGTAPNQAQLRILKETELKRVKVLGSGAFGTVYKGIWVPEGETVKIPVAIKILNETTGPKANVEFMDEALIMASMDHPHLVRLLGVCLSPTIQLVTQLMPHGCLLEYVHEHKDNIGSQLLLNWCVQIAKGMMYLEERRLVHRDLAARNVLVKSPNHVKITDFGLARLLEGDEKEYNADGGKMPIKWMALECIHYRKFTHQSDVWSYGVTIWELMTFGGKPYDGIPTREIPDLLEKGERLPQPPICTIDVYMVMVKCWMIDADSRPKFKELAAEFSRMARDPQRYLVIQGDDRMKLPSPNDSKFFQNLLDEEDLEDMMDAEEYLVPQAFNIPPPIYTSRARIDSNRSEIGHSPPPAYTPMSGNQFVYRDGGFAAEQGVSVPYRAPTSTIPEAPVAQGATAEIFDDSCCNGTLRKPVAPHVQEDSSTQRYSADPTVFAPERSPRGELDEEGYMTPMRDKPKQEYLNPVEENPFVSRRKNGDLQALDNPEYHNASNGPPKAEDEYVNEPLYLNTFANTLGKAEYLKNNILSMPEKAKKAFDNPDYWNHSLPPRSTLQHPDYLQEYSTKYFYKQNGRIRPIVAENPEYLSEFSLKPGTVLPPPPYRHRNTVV

Compound: C=CC(=O)N1CCC[C@@H](c2ccc(C(N)=O)c3[nH]ccc23)C1 [Elsubrutinib]
- BLK binding POC (BLK): 15% of control
- TXK binding POC (TXK): 25% of control
- ITK binding POC (ITK): 94% of control
- MKK7 binding POC (MKK7): 24% of control
- MKK7 binding POC (MKK7; listed as elsubrutinib): weak hit
- JAK3 binding POC [1]: 0.15% of control
- JNK1 (MAPK8) POC (JNK1 (MAPK8)): 96% of control
- JNK3 (MAPK10) POC (JNK3 (MAPK10)): 94% of control
- ERBB4 binding POC (ERBB4): 91% of control
- TEC binding POC (TEC): 18% of control
- IC50 (BTK): 180 nM

Compound: C[C@H]1CN(C2COC2)CCN1c1ccc(Nc2cc(-c3ccnc(N4CCn5c(cc6c5CC(C)(C)C6)C4=O)c3CO)cn(C)c2=O)nc1 [Fenebrutinib]
- BLK binding POC (BLK): 60% of control
- TXK binding POC (TXK): 53% of control
- ITK binding POC (ITK): 25% of control
- MKK7 binding POC (MKK7): 89% of control
- JAK3 binding POC [1]: 95% of control
- JNK1 (MAPK8) POC (JNK1 (MAPK8)): 100% of control
- JNK3 (MAPK10) POC (JNK3 (MAPK10)): 100% of control
- ERBB4 binding POC (ERBB4): 100% of control
- TEC binding POC (TEC): 17% of control
- IC50 (BTK): 2.3 nM

Compound: O=C(c1ccc(Oc2ccccc2)cc1Cl)c1c[nH]c2ncnc(N[C@@H]3CC[C@@H](CO)OC3)c12 [Nemtabrutinib]
- BLK binding POC (BLK): 0.3% of control
- TXK binding POC (TXK): 2.7% of control
- ITK binding POC (ITK): 86% of control
- MKK7 binding POC (MKK7): 39% of control
- JAK3 binding POC [1]: 86% of control
- JNK1 (MAPK8) POC (JNK1 (MAPK8)): 39% of control
- JNK3 (MAPK10) POC (JNK3 (MAPK10)): 100% of control
- ERBB4 binding POC (ERBB4): 0.35% of control
- TEC binding POC (TEC): 7.3% of control
- IC50 (BTK): 0.85 nM

Compound: COc1ccc(F)cc1C(=O)NCc1ccc(-c2nn([C@@H](C)C(F)(F)F)c(N)c2C(N)=O)cc1 [Pirtobrutinib]
- BLK binding POC (BLK): 69% of control
- TXK binding POC (TXK): 11% of control
- ITK binding POC (ITK): 100% of control
- MKK7 binding POC (MKK7): 91% of control
- JAK3 binding POC [1]: 77% of control
- JNK1 (MAPK8) POC (JNK1 (MAPK8)): 96% of control
- JNK3 (MAPK10) POC (JNK3 (MAPK10)): 100% of control
- ERBB4 binding POC (ERBB4): 2% of control
- TEC binding POC (TEC): 12% of control
- IC50 (BTK): 3.2 nM

Compound: C=CC(=O)Nc1cccc(Oc2nc(Nc3ccc(N4CCN(C)CC4)cc3)nc3ccoc23)c1 [Poseltinib]
- BLK binding POC (BLK): 0.85% of control
- TXK binding POC (TXK): 4.4% of control
- ITK binding POC (ITK): 1% of control
- MKK7 binding POC (MKK7): 100% of control
- JAK3 binding POC [1]: 0.45% of control
- JNK1 (MAPK8) POC (JNK1 (MAPK8)): 32% of control
- JNK3 (MAPK10) POC (JNK3 (MAPK10)): 100% of control
- ERBB4 binding POC (ERBB4): 0.15% of control
- TEC binding POC (TEC): 8.5% of control
- IC50 (BTK): 3 nM

Compound: C=CC(=O)Nc1cccc(Nc2nc(Nc3ccc(OCCOC)cc3)ncc2F)c1 [Spebrutinib]
- BLK binding POC (BLK): 22% of control
- TXK binding POC (TXK): 4.5% of control
- ITK binding POC (ITK): 51% of control
- MKK7 binding POC (MKK7): 79% of control
- JAK3 binding POC [1]: 0% of control
- JNK1 (MAPK8) POC (JNK1 (MAPK8)): 4.8% of control
- JNK3 (MAPK10) POC (JNK3 (MAPK10)): 3.9% of control
- ERBB4 binding POC (ERBB4): 17% of control
- TEC binding POC (TEC): 8.1% of control
